Experimental data published in ChEMBL document CHEMBL1201862, “PubChem BioAssay data set” (2004).
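1) Cells in 96-well plates. 2) Compound, 48 h, 5 concentrations. 3) Linear interpolation between surrounding doses. 4) Unreached endpoint = highest concentration. GI50 is the concentration that inhibits growth by half.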 Calls of active or inactive are those of the source. Rule as the data show it: active = GI50 up to about 1.1 µM and inactive = higher. Peptide text beside a SMILES is read from it. * marks the point of attachment. Trt = c1ccc(C(c2ccccc2)(c2ccccc2)*)cc1; Cbz = O=C(OCc1ccccc1)*

Assays:
Assay in all cases: DTP human tumour cell line panel, 48 h
[1] = test system: SR
[2] = test system: SF-268
[3] = test system: KM12
[4] = test system: NCI-H23
[5] = test system: COLO 205
[6] = test system: HCC 2998
[7] = test system: SK-MEL-28
[8] = test system: UACC-257
[9] = test system: HT-29
[10] = test system: U-251
[11] = test system: 786-0
[12] = test system: EKVX
[13] = test system: CCRF-CEM
[14] = test system: SK-MEL-2
[15] = test system: SK-MEL-5
[16] = test system: OVCAR-3
[17] = test system: SW-620
[18] = test system: K562
[19] = test system: MCF7

Compound | GI50 [1] | GI50 [2] | GI50 [3] | GI50 [4] | GI50 [5] | GI50 [6] | GI50 [7] | GI50 [8] | GI50 [9] | GI50 [10] | GI50 [11] | GI50 [12] | GI50 [13] | GI50 [14] | GI50 [15] | GI50 [16] | GI50 [17] | GI50 [18] | GI50 [19]
CN/N=C(/Cc1occc(=O)c1O)C(=O)Nc1ccc(C)c(C)c1 | > 100 µM (inactive) | > 100 µM (inactive) | > 100 µM (inactive) | > 100 µM (inactive) | > 100 µM (inactive) | > 100 µM (inactive) | > 100 µM (inactive) | > 100 µM (inactive) | > 100 µM (inactive) | > 100 µM (inactive) | > 100 µM (inactive) | > 100 µM (inactive) | > 100 µM (inactive) | > 100 µM (inactive) | > 100 µM (inactive) | > 100 µM (inactive) | > 100 µM (inactive) | > 100 µM (inactive) | 
CC1C=CC(O)[C@]2(CO)CC3(CCC12)OCCO3 (some centres not stated) | > 100 µM (inactive) | > 100 µM (inactive) | > 100 µM (inactive) | > 100 µM (inactive) |  | > 100 µM (inactive) | > 100 µM (inactive) | > 100 µM (inactive) | > 100 µM (inactive) | > 100 µM (inactive) | > 100 µM (inactive) | > 100 µM (inactive) | > 100 µM (inactive) | > 100 µM (inactive) | > 100 µM (inactive) | > 100 µM (inactive) | > 100 µM (inactive) | > 100 µM (inactive) | 
CN(C)CCNC(=O)c1cccc2c(NCC(=O)O)c3ccccc3nc12 | 1.36 µM (inactive) | 11.5 µM (inactive) | 11.9 µM (inactive) | 15.2 µM (inactive) | 5.21 µM (inactive) |  | 20.6 µM (inactive) |  | 3.07 µM (inactive) | 24.5 µM (inactive) | 6.87 µM (inactive) | 10.6 µM (inactive) | 36 µM (inactive) | 16.7 µM (inactive) | 10.6 µM (inactive) | 19.9 µM (inactive) | 6.62 µM (inactive) | 14 µM (inactive) | 3.79 µM (inactive)
Cc1ccccc1C1OC(=O)c2ccc3ccccc3c21 (configuration not stated) | 0.769 µM (active) | 6.97 µM (inactive) | 5.6 µM (inactive) | 5.71 µM (inactive) | 1.37 µM (inactive) | 4 µM (inactive) | 3.43 µM (inactive) | 4.62 µM (inactive) | 4.22 µM (inactive) | 3.57 µM (inactive) | 4.57 µM (inactive) | 7.4 µM (inactive) | 4.21 µM (inactive) | 2.25 µM (inactive) | 3.53 µM (inactive) | 3.65 µM (inactive) | 4.52 µM (inactive) | 3.07 µM (inactive) | 
Cc1cc(C)c2c(c1)N[S@@](=O)S2 | 36.2 µM (inactive) | 17.9 µM (inactive) | 24 µM (inactive) | 35.4 µM (inactive) | 18.2 µM (inactive) | 39.6 µM (inactive) | 28 µM (inactive) | 16.6 µM (inactive) | 20.2 µM (inactive) | 16.8 µM (inactive) | 15 µM (inactive) | 51.5 µM (inactive) | 21.9 µM (inactive) | 22.3 µM (inactive) | 29.9 µM (inactive) | 18.3 µM (inactive) | 3.74 µM (inactive) | 26.4 µM (inactive) | 
O=C1CCCc2cc3c(cc21)CC1(Cc2ccccc2C1)C3 |  |  | 2.5 µM (inactive) | 6.78 µM (inactive) | 1.93 µM (inactive) | 16.1 µM (inactive) |  | 3.48 µM (inactive) | 2.8 µM (inactive) | 5.38 µM (inactive) | 6.28 µM (inactive) | 9.14 µM (inactive) |  | 15 µM (inactive) | 4.89 µM (inactive) | 2.56 µM (inactive) |  | 1.86 µM (inactive) | 3.9 µM (inactive)
COC(=O)Cc1nc2ccccc2o1 | > 100 µM (inactive) | > 100 µM (inactive) | 66.5 µM (inactive) | > 100 µM (inactive) | 95.1 µM (inactive) | 88.5 µM (inactive) | > 100 µM (inactive) | 47 µM (inactive) | 90.8 µM (inactive) | 83.8 µM (inactive) | > 100 µM (inactive) | > 100 µM (inactive) | 44.3 µM (inactive) | 65.8 µM (inactive) | 50.8 µM (inactive) | 69 µM (inactive) | 95.1 µM (inactive) | 32.4 µM (inactive) | 
CC1=C(C)CC2(CCCCC2=O)[S+]([O-])C1 (configuration not stated) | > 100 µM (inactive) | > 100 µM (inactive) | > 100 µM (inactive) | > 100 µM (inactive) | > 100 µM (inactive) | > 100 µM (inactive) | > 100 µM (inactive) | > 100 µM (inactive) | > 100 µM (inactive) | > 100 µM (inactive) | > 100 µM (inactive) | > 100 µM (inactive) | > 100 µM (inactive) | > 100 µM (inactive) | > 100 µM (inactive) | > 100 µM (inactive) | > 100 µM (inactive) | > 100 µM (inactive) | 
COc1cc(/C=C(\C#N)c2ccccc2)cc(OC)c1 | 36.1 µM (inactive) | 40.9 µM (inactive) | 34.8 µM (inactive) | 20.3 µM (inactive) | 57.4 µM (inactive) | 67.6 µM (inactive) | 26.1 µM (inactive) | 8.59 µM (inactive) | 32.4 µM (inactive) | 28.3 µM (inactive) | 31.8 µM (inactive) | 77.1 µM (inactive) | 30.7 µM (inactive) | 73.6 µM (inactive) | 41.1 µM (inactive) | > 100 µM (inactive) | 38.9 µM (inactive) | 15.2 µM (inactive) | 
c1cc2c(c(NC3=NCCO3)c1)CCC2 | 86.5 µM (inactive) | > 100 µM (inactive) | > 100 µM (inactive) | > 100 µM (inactive) | > 100 µM (inactive) |  | > 100 µM (inactive) | > 100 µM (inactive) | > 100 µM (inactive) | > 100 µM (inactive) | > 100 µM (inactive) | > 100 µM (inactive) | > 100 µM (inactive) | > 100 µM (inactive) | > 100 µM (inactive) | > 100 µM (inactive) | > 100 µM (inactive) | > 100 µM (inactive) | > 100 µM (inactive)
COC1CCC(=O)N1CN(C(C)=O)c1ccc(C)cc1 (configuration not stated) | > 100 µM (inactive) | > 100 µM (inactive) | > 100 µM (inactive) | > 100 µM (inactive) | > 100 µM (inactive) | > 100 µM (inactive) | > 100 µM (inactive) | > 100 µM (inactive) | > 100 µM (inactive) | > 100 µM (inactive) | > 100 µM (inactive) |  | 0.0569 µM (active) | > 100 µM (inactive) | > 100 µM (inactive) | > 100 µM (inactive) | > 100 µM (inactive) | > 100 µM (inactive) | > 100 µM (inactive)
CS/C(c1ccccc1)=[N+](/C)[O-] | 24.2 µM (inactive) | > 100 µM (inactive) | > 100 µM (inactive) | > 100 µM (inactive) | > 43.3 µM (inactive) | > 100 µM (inactive) | > 100 µM (inactive) | > 100 µM (inactive) | > 75.9 µM (inactive) | > 100 µM (inactive) | > 100 µM (inactive) | > 100 µM (inactive) | > 51.2 µM (inactive) | > 100 µM (inactive) | > 100 µM (inactive) | > 100 µM (inactive) | > 100 µM (inactive) | > 67.9 µM (inactive) | 
CSc1ccc(N2C(=O)C3c4[nH]c5ccccc5c4C4CCC(C(C)(C)C)CC4C3C2=O)cc1 (configuration not stated) | 10.2 µM (inactive) | 12.4 µM (inactive) | 28.4 µM (inactive) | 15.5 µM (inactive) | 10 µM (inactive) | 15.6 µM (inactive) | 13.8 µM (inactive) | 46.8 µM (inactive) | 21.8 µM (inactive) | 16.4 µM (inactive) | 14.9 µM (inactive) | 20.7 µM (inactive) | 8.49 µM (inactive) | 17.6 µM (inactive) | 25.8 µM (inactive) | 41.2 µM (inactive) | 21.3 µM (inactive) | 15.9 µM (inactive) | 
COC(=O)C(CO)NC(=O)C(CSC(c1ccccc1)(c1ccccc1)c1ccccc1)NC(=O)OCc1ccccc1 (configuration not stated) (Cbz-Cys(Trt)-Ser-OMe; configuration not given here) | 0.158 µM (active) | 17.7 µM (inactive) | 16.1 µM (inactive) | 17.9 µM (inactive) | 15.6 µM (inactive) | 14.9 µM (inactive) | 17 µM (inactive) |  | 11.4 µM (inactive) | 16.7 µM (inactive) | 20.9 µM (inactive) | 16 µM (inactive) | 0.0398 µM (active) | 16.9 µM (inactive) | 15.1 µM (inactive) | 13.6 µM (inactive) | 15.5 µM (inactive) | 15.3 µM (inactive) | 14.8 µM (inactive)
O=C(Nc1c(Cl)cc([N+](=O)[O-])cc1Cl)C(=O)C(C1OC(=O)c2ccccc21)[N+](=O)[O-] (configuration not stated) | > 100 µM (inactive) | > 100 µM (inactive) | > 100 µM (inactive) | > 100 µM (inactive) | > 100 µM (inactive) | > 100 µM (inactive) | > 100 µM (inactive) | > 100 µM (inactive) | > 100 µM (inactive) | > 100 µM (inactive) | > 100 µM (inactive) | 75.9 µM (inactive) | > 100 µM (inactive) | > 100 µM (inactive) | > 100 µM (inactive) | > 100 µM (inactive) | > 100 µM (inactive) | > 100 µM (inactive) | 
CCOC(=O)N1C2C=C(C)C(C3C(C)C(=O)N31)N(C(=O)c1ccccc1)O2 (configuration not stated) | > 100 µM (inactive) | > 100 µM (inactive) | > 100 µM (inactive) | > 100 µM (inactive) | > 100 µM (inactive) | > 100 µM (inactive) | > 100 µM (inactive) | > 100 µM (inactive) | > 100 µM (inactive) | > 100 µM (inactive) | > 100 µM (inactive) | > 100 µM (inactive) | > 100 µM (inactive) | > 100 µM (inactive) | > 100 µM (inactive) | > 100 µM (inactive) | > 100 µM (inactive) | > 100 µM (inactive) | 
